From patent US20260347373A1, “HETEROCYCLIC COMPOUNDS, COMPOSITIONS THEREOF, AND METHODS OF TREATMENT THEREWITH” (BeOne Medicines I GmbH, priority 2023, published 2026)
Structures can show the parent of a compound that is named as a salt.

Tests used:
[1] = biological target: KRAS G12D (Homo sapiens, UniProt P01116, G12D); test: KRAS G12D Probe Displacement Assay (TR-FRET, GDP-loaded); assay type: binding; conditions: KRAS G12D, read-out: KRAS^G12D Probe Displacement Assay IC50
Source text: (§1) The synthetic routes of probe 1 and 2, which have been disclosed in PCT/CN2022/070676, are hereby incorporated herein.

[2] = biological target: WT KRAS (Homo sapiens, UniProt P01116); test: KRAS WT Probe Displacement Assay (TR-FRET, GDP-loaded); assay type: binding; conditions: KRAS WT, read-out: KRAS^WT Probe Displacement Assay IC50
Chain of WT KRAS (P01116 1-188 isoform P01116-2): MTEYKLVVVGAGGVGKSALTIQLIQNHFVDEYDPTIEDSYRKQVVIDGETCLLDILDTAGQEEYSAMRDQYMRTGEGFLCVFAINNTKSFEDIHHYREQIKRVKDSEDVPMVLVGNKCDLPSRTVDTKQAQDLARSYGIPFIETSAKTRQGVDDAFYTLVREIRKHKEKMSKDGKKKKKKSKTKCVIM
Source text: as §1

Chain of KRAS G12D (P01116 1-188 isoform P01116-2 G12D): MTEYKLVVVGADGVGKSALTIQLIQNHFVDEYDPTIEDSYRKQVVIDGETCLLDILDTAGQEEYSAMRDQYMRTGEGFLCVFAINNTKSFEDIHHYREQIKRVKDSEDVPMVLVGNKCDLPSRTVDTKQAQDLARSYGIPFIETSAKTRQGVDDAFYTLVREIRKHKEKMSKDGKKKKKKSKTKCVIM

Row | SMILES | IC50 [1] [nM] | IC50 [2] [nM]
1 | Cc1cc(N)cc(-c2nc3c4c(nc(OC[C@@]56C[C@@H](F)CN5C[C@@]5(CC5(F)F)C6)nc4c2F)N2C[C@H]4CC[C@H](N4)[C@H]2CCO3)c1C(F)(F)F [Example 199, 3-((6aR,7S,10R)-1-fluoro-13-(((1S,6′R,7a′R)-2,2,6′-trifluorodihydro-1′H,3′H-spiro[cyclopropane-1,2′-pyrrolizin]-7a′(5′H)-yl)methoxy)-5,6,6a,7,8,9,10,11-octahydro-4-oxa-3,11a,12,14,15-pentaaza[7,10]methanocyclohepta[4,5]cycloocta[1,2,3-de]naphthalen-2-yl)-5-methyl-4-(trifluoromethyl)aniline] | < 0.3 | 0.3 to 3
2 | Cc1cc(N)cc(-c2nc3c4c(nc(OCC5(CN6CCC(C)(O)C6)CC5)nc4c2F)N2C[C@H]4CC[C@H](N4)[C@H]2CCO3)c1C(F)(F)F (stereo partly drawn) [Example 93, 1-((1-((((6aR,7S, 10R)-2-(5-amino-3-methyl-2-(trifluoromethyl)phenyl)-1-fluoro-5,6,6a,7,8,9,10,11-octahydro-4-oxa-3,11a,12,14,15-pentaaza-7,10-methanocyclohepta [4,5]cycloocta[1,2,3-de]naphthalen-13-yl)oxy)methyl)cyclopropyl)methyl)-3-methylpyrrolidin-3-ol] | < 0.3 | 3 to 1000
3 | Cc1cc(N)cc(-c2nc3c4c(nc(OCC5(CN6CCCC67CCOC7)CC5)nc4c2F)N2C[C@H]4CC[C@H](N4)[C@H]2CCO3)c1C(F)(F)F (stereo partly drawn) [Example 190, 3-((6aR,7S,10R)-13-((1-((7-oxa-1-azaspiro[4.4]nonan-1-yl)methyl)cyclopropyl)methoxy)-1-fluoro-5,6,6a,7,8,9,10,11-octahydro-4-oxa-3,11a,12,14,15-pentaaza[7,10]methanocyclohepta[4,5]cycloocta[1,2,3-de]naphthalen-2-yl)-5-methyl-4-(trifluoromethyl)aniline] | < 0.3 | 3 to 1000
4 | Nc1cc(Cl)c(C(F)(F)F)c(-c2nc3c4c(nc(OCC5(CN6CCC(=C(F)F)CC6)CC5)nc4c2F)N2C[C@H]4CC[C@H](N4)[C@H]2CCO3)c1 [Example 148, 3-chloro-5-((6aR,7S,10R)-13-((1-((4-(difluoromethylene)piperidin-1-yl)methyl)cyclopropyl)methoxy)-1-fluoro-5,6,6a,7,8,9,10,11-octahydro-4-oxa-3,11a,12,14,15-pentaaza-7,10-methano-cyclohepta[4,5]cycloocta [1,2,3-de]naphthalen-2-yl)-4-(trifluoromethyl)aniline] | < 0.3 | 0.3 to 3
5 | [2H]C([2H])([2H])N1CCC(C(F)F)C(C)(C([2H])([2H])Oc2nc3c4c(nc(-c5cc(N)cc(Cl)c5C(F)(F)F)c(F)c4n2)OCC[C@@H]2[C@@H]4CC[C@H](CN32)N4)C1 (single isomer, unassigned) [Example 247] | < 0.3 | 0.3 to 3
6 | CCN1C[C@H](F)C[C@H]1[C@H](C)Oc1nc2c3c(nc(-c4cc(N)cc(C)c4C(F)(F)F)c(F)c3n1)OCC[C@@H]1[C@@H]3CC[C@H](CN21)N3 [Example 222, 3-((6aR,7S,10R)-13-((S)-1-((2S,4R)-1-ethyl-4-fluoropyrrolidin-2-yl)ethoxy)-1-fluoro-5,6,6a,7,8,9,10,11-octahydro-4-oxa-3,11a,12,14,15-pentaaza-7,10-methanocyclohepta[4,5]cycloocta[1,2,3-de]naphthalen-2-yl)-5-methyl-4-(trifluoromethyl)aniline] | < 0.3 | 3 to 1000
7 | Cc1cc(N)cc(-c2nc3c4c(nc(OCC5(CN6C[C@@H](F)[C@@H](O)C6)CC5)nc4c2F)N2C[C@H]4CC[C@H](N4)[C@H]2CCO3)c1C(F)(F)F (stereo in doubt) [Example 95, cis-1-((1-((((6aR, 7S,10R)-2-(5-amino-3-methyl-2-(trifluoromethyl)phenyl)-1-fluoro-5,6,6a,7,8,9,10,11-octahydro-4-oxa-3,11a,12,14,15-pentaaza-7,10-methanocyclohepta [4,5]cycloocta[1,2,3-de]naphthalen-13-yl)oxy)methyl)cyclopropyl)methyl)-4-fluoropyrrolidin-3-ol formate] | < 0.3 | 3 to 1000
8 | Cc1cc(N)cc(-c2nc3c4c(nc(OCC5(CN6C[C@H]7CC[C@@H](C6)O7)CC5)nc4c2F)N2C[C@H]4CC[C@H](N4)[C@H]2CCO3)c1C(F)(F)F [Example 106, 3-((6aR,7S,10R)-13-((1-(((1R,5S)-8-oxa-3-azabicyclo [3.2.1]octan-3-yl)methyl)cyclopropyl)methoxy)-1-fluoro-5,6,6a, 7,8,9,10,11-octahydro-4-oxa-3,11a,12,14,15-pentaaza-7,10-methanocyclohepta [4,5]cycloocta [1,2,3-de]naphthalen-2-yl)-5-methyl-4-(trifluoromethyl)aniline] | < 0.3 | 3 to 1000
9 | Cc1cc(N)cc(-c2nc3c4c(nc(OCC5(CN6CCOC7(CC7)C6)CC5)nc4c2F)N2C[C@H]4CC[C@H](N4)[C@H]2CCO3)c1C(F)(F)F [Example 120, 3-((6aR,7S,10R)-13-((1-((4-oxa-7-azaspiro[2.5]octan-7-yl)methyl)cyclopropyl)methoxy)-1-fluoro-5,6,6a,7,8,9,10,11-octahydro-4-oxa-3,11a,12,14,15-pentaaza[7,10]methanocyclohepta [4,5]cycloocta[1,2,3-de]naphthalen-2-yl)-5-methyl-4-(trifluoromethyl)aniline] | < 0.3 | 0.3 to 3
10 | Cc1cc(N)cc(-c2nc3c4c(nc(OCC5(CN(C)C)CC5(F)F)nc4c2F)N2C[C@H]4CC[C@H](N4)[C@H]2CCO3)c1C(F)(F)F (single isomer, unassigned) [Example 17] | < 0.3 | 3 to 1000
11 | Cc1cc(N)cc(-c2nc3c4c(nc(OCC5(CN6CCC7(CC6)COC7)CC5)nc4c2F)N2C[C@H]4CC[C@H](N4)[C@H]2CCO3)c1C(F)(F)F [Example 102, 3-((6aR,7S,10R)-13-((1-((2-oxa-7-azaspiro[3.5]nonan-7-yl)methyl)cyclopropyl)methoxy)-1-fluoro-5,6,6a,7,8,9,10,11-octahydro-4-oxa-3,11a,12,14,15-pentaaza[7,10]methanocyclohepta [4,5]cycloocta [1,2,3-de]naphthalen-2-yl)-5-methyl-4-(trifluoromethyl)aniline] | < 0.3 | 0.3 to 3
12 | Cc1cc(N)cc(-c2nc3c4c(nc(OCC5(CN6C[C@@H]7C[C@@H]7[C@H]6C)CC5)nc4c2F)N2C[C@H]4CC[C@H](N4)[C@H]2CCO3)c1C(F)(F)F [Example 171, 3-((6aR,7S,10R)-1-fluoro-13-((1-(((1S,2R,5R)-2-methyl-3-azabicyclo[3.1.0]hexan-3-yl)methyl)cyclopropyl)methoxy)-5,6,6a,7,8,9,10,11-octahydro-4-oxa-3,11a,12,14,15-pentaaza-7,10-methanocyclohepta[4,5]cycloocta[1,2,3-de]naphthalen-2-yl)-5-methyl-4-(trifluoromethyl)aniline] | < 0.3 | 3 to 1000
13 | Cc1cc(N)cc(-c2nc3c4c(nc(OCC5(C)CN(C)CCC5C(F)F)nc4c2F)N2C[C@H]4CC[C@H](N4)[C@H]2CCO3)c1C(F)(F)F (single isomer, unassigned) [Example 245] | < 0.3 | 0.3 to 3
14 | COC1CN(CC2(COc3nc4c5c(nc(-c6cc(N)cc(C)c6C(F)(F)F)c(F)c5n3)OCC[C@@H]3[C@@H]5CC[C@H](CN43)N5)CC2)C1 [Example 83, 3-((6aR,7S,10R)-1-fluoro-13-((1-((3-methoxyazetidin-1-yl)methyl)cyclopropyl)methoxy)-5,6,6a,7,8,9,10,11-octahydro-4-oxa-3,11a,12,14,15-pentaaza-7,10-methanocyclohepta [4,5]cycloocta [1,2,3-de]naphthalen-2-yl)-5-methyl-4-(trifluoromethyl)aniline] | < 0.3 | 3 to 1000
15 | CO[C@H]1CCN(CC2(COc3nc4c5c(nc(-c6cc(N)cc(C)c6C(F)(F)F)c(F)c5n3)OCC[C@@H]3[C@@H]5CC[C@H](CN43)N5)CC2)C[C@H]1F [Example 185, 3-((6aR,7S,10R)-1-fluoro-13-((1-(((3R,4S)-3-fluoro-4-methoxypiperidin-1-yl)methyl)cyclopropyl)methoxy)-5,6,6a,7,8,9,10,11-octahydro-4-oxa-3,11a,12,14,15-pentaaza-7,10-methanocyclohepta[4,5]cycloocta[1,2,3-de]naphthalen-2-yl)-5-methyl-4-(trifluoromethyl)aniline] | < 0.3 | 3 to 1000
16 | Cc1cc(N)cc(-c2nc3c4c(nc(OCC5(CN6CCC(F)CC6)CC5)nc4c2F)N2C[C@H]4CC[C@H](N4)[C@H]2CCO3)c1C(F)(F)F [Example 66, 3-((6aR,7S,10R)-1-fluoro-13-((1-((4-fluoropiperidin-1-yl)methyl)cyclopropyl)methoxy)-5,6,6a,7,8,9,10,11-octahydro-4-oxa-3,11a,12,14,15-pentaaza-7,10-methanocyclohepta[4,5]cycloocta [1,2,3-de]naphthalen-2-yl)-5-methyl-4-(trifluoromethyl)aniline] | < 0.3 | 3 to 1000
17 | [2H]C([2H])([2H])N1CCC[C@H]1[C@H](C)Oc1nc2c3c(nc(-c4cc(N)cc(C)c4C(F)(F)F)c(F)c3n1)OCC[C@@H]1[C@@H]3CC[C@H](CN21)N3 [Example 141, 3-((6aR,7S,10R)-1-fluoro-13-((S)-1-((S)-1-(methyl-d3)pyrrolidin-2-yl)ethoxy)-5,6,6a,7,8,9,10,11-octahydro-4-oxa-3,11a,12,14,15-pentaaza-7,10-methano-cyclohepta[4,5]cycloocta [1,2,3-de]naphthalen-2-yl)-5-methyl-4-(trifluoromethyl)aniline] | < 0.3 | 3 to 1000
